Assay results reported in patent US10010520B2, “Combined application of isothiocyanate compound and anti-cancer medicine” (JC (WUXI) COMPANY, INC., priority 2013, dated 2018).
Where “and” joins values, the source holds several entries; their conditions need not be identical. Equal values may be shown once. Read-outs that look alike come from different tables or passages of the source. Each block holds one compound with its values, some of them ahead of it.

How the values were obtained:
SK-MEL-28 cells = assay: CellTiter-Glo cell viability, drugs alone or in combination, SK-MEL-28 cells; assay type: cell-based; conditions: Homo sapiens, 72 hrs
Experimental: (§1) isothiocyanates or derivatives thereof and DNA-effecting or influencing anticancer drugs, kinase-inhibiting anticancer drugs or hormonal anticancer drugs for endocrine therapy were administered separately or in combination to cancer cells. Cells were seeded into 384-well plates, and cultured for 24 hours in a CO2 incubator. Drugs were dissolved in DMSO and diluted to 9 concentration-gradients in 96 well plates, and then added to corresponding cells in 384-well plates, in which the concentrations of DMSO in 384 well plates were less than 1%. Triplicate wells were set for each concentration. After administration, the cells were cultured in the CO2 incubator for another 72 hrs, and afterwards, cell viability was tested by using CellTiter-Glo® reagent and luminescence detector. And IC50 values of each administration group were calculated.
(§2) CI value was calculated by the following formula: CI=(Am)50/(As)50+(Bm)50/(Bs)50,
(§3) Triplicate wells were set for each co-administration cell well.
(§4) After administration, cells were cultured in the CO2 incubator for another 72 hrs, and afterwards, cell viability was tested by using CellTiter-Glo® reagent and luminescence detector. Curves were plotted according to concentrations or logarithm concentrations of drug A vs cell inhibition rate in the corresponding cell well, and IC50, i.e. (Am)50 was calculated. […]

[1] = tested on: pancreatic cancer cells PANC-1; assay: CellTiter-Glo cell viability, drugs alone or in combination, PANC-1 cells; assay type: cell-based, human; conditions: PANC-1 cells, 72 hrs
Experimental: as §1, §2, §3
(§5) After administration, cells were cultured in the CO2 incubator for another 72 hrs, and afterwards, cell viability was tested by using CellTiter-Glo® reagent and luminescence detector. Curves were plotted according to concentrations or logarithm concentrations of drug A vs cell inhibition rate in the corresponding cell well, and IC50, i.e. (Am)50 was calculated.
(§6) 9 concentration gradients of drug A were set (A1, A2, A3, A4, A5, A6, A7, A8, A9), and administrated alone to the corresponding cells in the 384 well plate, and triplicate wells were set for each administration concentration. After administration, the cells were cultured in the CO2 incubator for another 72 hrs, and afterwards, cell viability was tested by using CellTiter-Glo® reagent and luminescence detector. Curves were plotted according to concentration or logarithm concentration of drug A vs the cell inhibition rate in the corresponding cell well, and IC50, i.e. (As)50 was calculated.
(§7) After administration, the cells were cultured in the CO2 incubator for another 72 hrs, and afterwards, cell viability was tested by using CellTiter-Glo® reagent and luminescence detector.

A549 cells = assay: CellTiter-Glo cell viability, drugs alone or in combination, A549 cells; assay type: cell-based, human
Experimental: as §1, §2, §3, §5, §6, §7

OVCAR-3 cells = assay: CellTiter-Glo cell viability, drugs alone or in combination, OVCAR-3 cells; conditions: 72 hrs
DU145 cells = assay: CellTiter-Glo cell viability, drugs alone or in combination, DU145 cells; assay type: cell-based, human
Experimental: (§8) Cell culture: Androgen-dependent human prostate cancer cells LNCaP, from Shanghai Medicilon Ltd., were placed in a 37° C., 5% CO2 cell incubator, and were cultured in RPMI1640 culture medium with 10% FBS. Androgen-independent human prostate cancer cells DU145, PC-3, from Shanghai Medicilon Ltd., were placed in a 37° C., 5% CO2 cell incubator, and were cultured in F12 culture medium with 10% FBS.
as §1, §2, §3, §5, §6, §7

PC-3 cells = assay: CellTiter-Glo cell viability, drugs alone or in combination, PC-3 cells; assay type: cell-based; conditions: Homo sapiens, 72 hrs
Experimental: as §8
isothiocyanates or derivatives thereof and DNA-effecting or influencing anticancer drugs, kinase-inhibiting anticancer drugs or hormonal anticancer drugs for endocrine therapy were administered separately or in combination to cancer cells. […] After administration, the cells were cultured in the CO2 incubator for another 72 hrs, and afterwards, cell viability was tested by using CellTiter-Glo® reagent and luminescence detector. And IC50 values of each administration group were calculated.
CI value was calculated by the following formula: CI=(Am)50/(As)50+(Bm)50/(Bs)50, […]
as §4

LNCaP cells = assay: CellTiter-Glo cell viability, drugs alone or in combination, LNCaP cells; assay type: cell-based, human; conditions: LNCaP cells, 72 hrs
Experimental: as §8, §1, §2, §3, §5, §6, §7

[2] = tested on: Human breast cancer MDA-MB-231 cells; assay: CellTiter-Glo cell viability, drugs alone or in combination, MDA-MB-231 cells; conditions: 72 hrs
[3] = tested on: human gastric cancer AGS cells; assay: CellTiter-Glo cell viability, drugs alone or in combination, AGS cells
Saos-2 cells = assay: CellTiter-Glo cell viability, drugs alone or in combination, Saos-2 cells; assay type: cell-based, human; conditions: Saos-2 cells, 72 hrs
Experimental: as §1, §2, §3, §5, §6, §7

HeLa cells = assay: CellTiter-Glo cell viability, drugs alone or in combination, HeLa cells; assay type: cell-based, human
Experimental: as §1, §2, §3, §5, §6, §7

Jurkat E6-1 cells = assay: CellTiter-Glo cell viability, drugs alone or in combination, Jurkat E6-1 cells; assay type: cell-based, human; conditions: Jurkat E6-1 cells, 72 hrs, read-out: (As)50, IC50 of drug A when used alone
Experimental: as §1, §2, §3, §5, §6, §7

[4] = tested on: human leukemia HL-60 cells; assay: CellTiter-Glo cell viability, drugs alone or in combination, HL-60 cells; assay type: cell-based; conditions: read-out: (As)50, IC50 of drug A when used alone
Experimental: as §1, §2, §3, §5, §6, §7

U251 cells = assay: CellTiter-Glo cell viability, drugs alone or in combination, U251 cells; conditions: Homo sapiens, U-251, 72 h, read-out: (As)50, IC50 of drug A when used alone, U251 cells; 72 hrs
HT29 cells = assay: CellTiter-Glo cell viability, drugs alone or in combination, HT29 cells; conditions: Homo sapiens, HT-29, 72 h
[5] = tested on: human kidney cancer cells 786-O; assay: CellTiter-Glo cell viability, drugs alone or in combination, 786-O cells; conditions: 786-0, 72 h, read-out: (As)50, IC50 of drug A when used alone, 786-O cells, 72 hrs
[6] = read-out: (Bs)50, IC50 of drug B when used alone
[7] = Homo sapiens, A549, 72 h, read-out: (Bs)50, IC50 of drug B when used alone
[8] = Homo sapiens, OVCAR-3, 72 h, read-out: (Bs)50, IC50 of drug B when used alone, OVCAR-3 cells
[9] = Homo sapiens, DU-145, 72 h, read-out: (Bs)50, IC50 of drug B when used alone
[10] = Homo sapiens, LNCaP, 72 h, read-out: (Bs)50, IC50 of drug B when used alone
[11] = Homo sapiens, AGS, 72 h, read-out: (Bs)50, IC50 of drug B when used alone, AGS cells
[12] = Homo sapiens, HeLa, 72 h, read-out: (As)50, IC50 of drug A when used alone
[13] = 72 hrs, read-out: (As)50, IC50 of drug A when used alone
[14] = read-out: (As)50, IC50 of drug A when used alone
[15] = Homo sapiens, SAOS-2, 72 h, read-out: (As)50, IC50 of drug A when used alone
[16] = Homo sapiens, PANC-1, 72 h, read-out: (As)50, IC50 of drug A when used alone
[17] = Homo sapiens, MDA-MB-231, 72 h, read-out: (As)50, IC50 of drug A when used alone, MDA-MB-231 cells
[18] = Homo sapiens, LNCaP, 72 h, read-out: (As)50, IC50 of drug A when used alone

IC50 (SK-MEL-28 cells; [6]): 1.2 µM
Compound: CCCS(=O)(=O)Nc1ccc(F)c(C(=O)c2c[nH]c3ncc(-c4ccc(Cl)cc4)cc23)c1F [Vemurafenib, reference compound]

IC50 [1, 6]: 32.4 µM
IC50 (A549 cells; [7]): 9.54 µM
IC50 (OVCAR-3 cells; [8]): 89.7 µM
Compound: Nc1ccn([C@@H]2O[C@H](CO)[C@@H](O)C2(F)F)c(=O)n1 [gemcitabine, Gemcitabine, reference compound]

IC50 (DU145 cells; [9]): 37.4 µM
IC50 (PC-3 cells; [6]): 101 µM
IC50 (LNCaP cells; [10]): 21.2 µM
Compound: C[C@]12CC[C@H](O)CC1=CC[C@@H]1[C@@H]2CC[C@]2(C)C(c3cccnc3)=CC[C@@H]12 [Abiraterone, abiraterone, reference compound]

IC50 (DU145 cells; [9]): 0.0265 µM
Compound: CO[C@H]1C(=O)[C@]2(C)[C@@H](OC)C[C@H]3OC[C@@]3(OC(C)=O)[C@H]2[C@H](OC(=O)c2ccccc2)[C@]2(O)C[C@H](OC(=O)[C@H](O)[C@@H](NC(=O)OC(C)(C)C)c3ccccc3)C(C)=C1C2(C)C [Cabazitaxel]

IC50 ([2]; read-out: (Bs)50, IC50 of drug B when used alone, MDA-MB-231 cells): 0.391 µM
IC50 [3, 11]: 0.00974 µM
Compound: CC(=O)O[C@@]12CO[C@@H]1C[C@H](O)[C@@]1(C)C(=O)[C@H](O)C3=C(C)[C@@H](OC(=O)[C@H](O)[C@@H](NC(=O)OC(C)(C)C)c4ccccc4)C[C@@](O)([C@@H](OC(=O)c4ccccc4)[C@H]21)C3(C)C [docetaxel, reference compound]

IC50 (OVCAR-3 cells; [8]): 1.74 µM
IC50 [3, 11]: 0.0534 µM
Compound: COc1cccc2c1C(=O)c1c(O)c3c(c(O)c1C2=O)C[C@@](O)(C(=O)CO)C[C@@H]3O[C@H]1C[C@H](N)[C@H](O)[C@H](C)O1 [adriamycin, reference compound]
IC50 (Saos-2 cells; Homo sapiens, SAOS-2, 72 h, read-out: (Bs)50, IC50 of drug B when used alone): 0.899 µM
IC50 (Saos-2 cells; [6]): 0.574 µM

Compound: S=C=NCCc1ccccc1 [Phenethyl isothiocyanate]
IC50 (HeLa cells; [12]): 16.1 µM
IC50 (Jurkat E6-1 cells; Homo sapiens, Jurkat E6.1, 72 h): 12.1 µM
IC50 (Jurkat E6-1 cells): 11.6 µM and 12.1 µM and 11.5 µM
IC50 (DU145 cells; [13]): 19.4 µM
IC50 (SK-MEL-28 cells; [14]): 32.7 µM
IC50 ([4]; 72 hrs): 6.66 µM
IC50 ([4]; Homo sapiens, HL-60, 72 h): 6.27 µM
IC50 (PC-3 cells; [14]): 52.6 µM
IC50 (Saos-2 cells; [15]): 20.5 µM
IC50 [1, 16]: 19.6 µM
IC50 (A549 cells; [13]): 22.3 µM
IC50 (A549 cells; Homo sapiens, A549, 72 h, read-out: (As)50, IC50 of drug A when used alone): 22 µM
IC50 [2, 17]: 25.1 µM
IC50 (U251 cells): 20.9 µM
IC50 (OVCAR-3 cells; read-out: (As)50, IC50 of drug A when used alone, OVCAR-3 cells): 31.8 µM and 9.87 µM
IC50 (LNCaP cells; [18]): 20.4 µM
IC50 ([3]; Homo sapiens, AGS, 72 h, read-out: (As)50, IC50 of drug A when used alone, AGS cells): 14.7 µM
IC50 ([3]; read-out: (As)50, IC50 of drug A when used alone, AGS cells, 72 hrs): 11.8 µM
IC50 (HT29 cells; [14]): 29.2 µM
IC50 [5]: 16 µM

Compound: N.N.[Cl][Pt][Cl] [cisplatin, Cisplatin, reference compound]
IC50 (HeLa cells; 72 hrs, read-out: (Bs)50, IC50 of drug B when used alone): 32.8 µM
IC50 (OVCAR-3 cells; read-out: (Bs)50, IC50 of drug B when used alone, OVCAR-3 cells): 20.6 µM

Compound: S=C=NCc1ccccc1 [Benzyl isothiocyanate, benzyl isothiocyanate]
IC50 (HeLa cells; [12]): 14.7 µM
IC50 ([4]; Homo sapiens, HL-60, 72 h): 11.5 µM
IC50 (Saos-2 cells; [15]): 14.5 µM
IC50 [1, 16]: 23.4 µM
IC50 [2, 17]: 11.4 µM
IC50 (LNCaP cells; [18]): 18.5 µM
IC50 [5]: 13.2 µM

IC50 (DU145 cells; [9]): 130 µM
IC50 (LNCaP cells; [10]): 72.5 µM
IC50 (LNCaP cells; [6]): 70 µM
Compound: CC(O)(CS(=O)(=O)c1ccc(F)cc1)C(=O)Nc1ccc(C#N)c(C(F)(F)F)c1 (stereo not drawn) [Bicalutamide, bicalutamide, reference compound]

IC50 (HT29 cells; [6]): > 100 µM
Compound: Nc1nc2c(c(=O)[nH]1)N(C=O)C(CNc1ccc(C(=O)N[C@@H](CCC(=O)O)C(=O)O)cc1)CN2 (stereo partly drawn) [Leucovorin, reference compound]

IC50 (A549 cells; [7]): 0.08 µM
Compound: CN(Cc1cnc2nc(N)nc(N)c2n1)c1ccc(C(=O)N[C@@H](CCC(=O)O)C(=O)O)cc1 [methotrexate, reference compound]
